Measured values reported in PubChem BioAssay (NCI).
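Protocol summary: plate cells (96-well), add compound at 5 concentrations, incubate 48 h, interpolate endpoints linearly. Abbreviation: GI50, concentration required for 50% inhibition of growth. TGI: concentration producing complete growth inhibition.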

How the values were obtained:
Test in all cases: NCI tumour cell line growth inhibition, 48 h
[1] = tested on: HL-60(TB) leukemia
[2] = tested on: A549 NSCLC
[3] = tested on: HOP-18 NSCLC
[4] = tested on: NCI-H460 lung
[5] = tested on: LXFL 529 NSCLC
[6] = tested on: SK-MEL-2 melanoma
[7] = tested on: UACC-257 melanoma
[8] = tested on: UACC-62 melanoma
[9] = tested on: M14 melanoma
[10] = tested on: HOP-62 NSCLC
[11] = tested on: SF-539 CNS
[12] = tested on: SNB-75 CNS
[13] = tested on: OVCAR-4 ovarian
[14] = tested on: KM12 colon
[15] = tested on: KM20L2 colon
[16] = tested on: SK-MEL-5 melanoma
[17] = tested on: NCI-H226 lung
[18] = tested on: HT29 colon
[19] = tested on: LOX IMVI melanoma
[20] = tested on: 786-0 renal
[21] = tested on: SF-268 CNS
[22] = tested on: NCI-H522 lung
[23] = tested on: RXF 393 renal
[24] = tested on: SN12C renal
[25] = tested on: U251 CNS
[26] = tested on: MALME-3M melanoma
[27] = tested on: SK-MEL-28 melanoma
[28] = tested on: ACHN renal
[29] = tested on: OVCAR-3 ovarian
[30] = tested on: SW-620 colon
[31] = tested on: UO-31 renal
[32] = tested on: SK-OV-3 ovarian
[33] = tested on: A498 renal
[34] = tested on: XF 498 CNS
[35] = tested on: HCT-15 colon
[36] = tested on: SNB-19 CNS
[37] = tested on: RPMI-8226 leukemia
[38] = tested on: RXF-631 renal
[39] = tested on: DMS 114 small cell lung
[40] = tested on: NCI-H23 lung
[41] = tested on: EKVX NSCLC
[42] = tested on: HOP-92 NSCLC
[43] = tested on: MOLT-4 leukemia
[44] = tested on: SF-295 CNS
[45] = tested on: COLO 205 colon
[46] = tested on: TK-10 renal
[47] = tested on: OVCAR-8 ovarian
[48] = tested on: CAKI-1 renal
[49] = tested on: DMS 273 small cell lung
[50] = tested on: M19-MEL melanoma
[51] = tested on: OVCAR-5 ovarian
[52] = tested on: CCRF-CEM leukemia
[53] = tested on: IGROV1 ovarian
[54] = tested on: K-562 leukemia
[55] = tested on: MDA-MB-435
[56] = tested on: HCT-116 colon
[57] = tested on: DLD-1 colon
[58] = tested on: MCF7 breast
[59] = tested on: PC-3 prostate
[60] = tested on: SR leukemia
[61] = tested on: BT-549 breast
[62] = tested on: T-47D breast
[63] = tested on: SNB-78 CNS
[64] = tested on: NCI/ADR-RES ovarian
[65] = tested on: DU-145 prostate
[66] = tested on: HCC-2998 colon
[67] = tested on: HS 578T breast
[68] = tested on: MDA-MB-231 breast

O=C(Cn1ccnc1[N+](=O)[O-])NCc1ccc(F)cc1
TGI [1]: > 100 µM
TGI [2]: > 100 µM
TGI [3]: > 100 µM
TGI [4]: > 100 µM
TGI [5]: > 100 µM
TGI [6]: > 100 µM
TGI [7]: > 100 µM
TGI [8]: > 100 µM
TGI [9]: > 100 µM
TGI [10]: > 100 µM
TGI [11]: > 100 µM
TGI [12]: > 100 µM
TGI [13]: > 100 µM
TGI [14]: > 100 µM
TGI [15]: > 100 µM
TGI [16]: > 100 µM
TGI [17]: > 100 µM
TGI [18]: > 100 µM
TGI [19]: > 100 µM
TGI [20]: > 100 µM
TGI [21]: > 100 µM
TGI [22]: > 100 µM
TGI [23]: > 100 µM
TGI [24]: > 100 µM
TGI [25]: > 100 µM
TGI [26]: > 100 µM
TGI [27]: > 100 µM
TGI [28]: > 100 µM
TGI [29]: > 100 µM
TGI [30]: > 100 µM
TGI [31]: > 100 µM
TGI [32]: > 100 µM
TGI [33]: > 100 µM
TGI [34]: > 100 µM
TGI [35]: > 100 µM
TGI [36]: > 100 µM
TGI [37]: > 100 µM
TGI [38]: > 100 µM
TGI [39]: > 100 µM
TGI [40]: > 100 µM
TGI [41]: > 100 µM
TGI [42]: > 100 µM
TGI [43]: > 100 µM
TGI [44]: > 100 µM
TGI [45]: > 100 µM
TGI [46]: > 100 µM
TGI [47]: > 100 µM
TGI [48]: > 100 µM
TGI [49]: > 100 µM
TGI [50]: > 100 µM
TGI [51]: > 100 µM
TGI [52]: > 100 µM
TGI [53]: > 100 µM
TGI [54]: > 100 µM

CN(C)CC(=O)N1CCc2c([nH]c3ccccc23)C1c1cccnc1 (stereo not given)
TGI [1]: > 100 µM
TGI [2]: > 100 µM
TGI [3]: > 100 µM
TGI [4]: > 100 µM
TGI [5]: > 100 µM
GI50 [55]: > 100 µM
TGI [55]: > 100 µM
TGI [56]: > 100 µM
GI50 [6]: > 100 µM
TGI [6]: > 100 µM
TGI [7]: > 100 µM
TGI [8]: > 100 µM
TGI [57]: > 100 µM
TGI [9]: > 100 µM
TGI [10]: > 100 µM
TGI [11]: > 100 µM
TGI [12]: > 100 µM
GI50 [58]: 70.2 µM
TGI [58]: > 100 µM
TGI [13]: > 100 µM
TGI [14]: > 100 µM
TGI [15]: > 100 µM
TGI [16]: > 100 µM
GI50 [17]: > 100 µM
TGI [17]: > 100 µM
GI50 [59]: 93 µM
TGI [59]: > 100 µM
TGI [60]: > 100 µM
TGI [18]: > 100 µM
TGI [19]: > 100 µM
TGI [20]: > 100 µM
TGI [21]: > 100 µM
TGI [22]: > 100 µM
GI50 [23]: > 100 µM
TGI [23]: > 100 µM
TGI [24]: > 100 µM
GI50 [61]: 12.9 µM
TGI [61]: 77.4 µM
TGI [25]: > 100 µM
GI50 [26]: > 100 µM
TGI [26]: > 100 µM
TGI [27]: > 100 µM
GI50 [62]: > 100 µM
TGI [62]: > 100 µM
TGI [28]: > 100 µM
TGI [29]: > 100 µM
TGI [30]: > 100 µM
TGI [31]: > 100 µM
TGI [32]: > 100 µM
TGI [33]: > 100 µM
TGI [63]: > 100 µM
TGI [34]: > 100 µM
TGI [35]: > 100 µM
TGI [36]: > 100 µM
TGI [37]: > 100 µM
TGI [38]: > 100 µM
GI50 [64]: > 100 µM
TGI [64]: > 100 µM
TGI [39]: > 100 µM
TGI [40]: > 100 µM
TGI [41]: > 100 µM
TGI [42]: > 100 µM
GI50 [65]: > 100 µM
TGI [65]: > 100 µM
TGI [43]: > 100 µM
TGI [66]: > 100 µM
GI50 [45]: 99.7 µM
TGI [45]: > 100 µM
TGI [46]: > 100 µM
TGI [47]: > 100 µM
GI50 [67]: 94.1 µM
TGI [67]: > 100 µM
TGI [48]: > 100 µM
TGI [49]: 1.37 µM
TGI [50]: > 100 µM
GI50 [68]: 21.5 µM
TGI [68]: 83.5 µM
TGI [51]: > 100 µM
TGI [52]: > 100 µM
TGI [53]: > 100 µM
TGI [54]: > 100 µM
